Consider 20 compounds from paper PMC9732672, “Pyrazolyl-s-triazine with indole motif as a novel of epidermal growth factor receptor/cyclin-dependent kinase 2 dual inhibitors” (Frontiers in Chemistry, 2022).

Where two headings read alike, the source gives them in different places. A value given as a limit tells only on which side of the number the result lay.

Series [1] concerns HDFs (non-cancerous human dermal fibroblasts). The series is described as follows: MTT cytotoxicity assay, HDFs. The format is cell-based. The settings on record: non-cancerous cells, average ±SD of four independent experiments, read-out: IC50 ± STDEV, HDFs. The protocol:
(§1) The parental MCF7 (breast cancer cell line), A549 (non-small cell lung cancer cell line), and human dermal fibroblast (HDF) (human dermal cell line) cells were obtained from the American Type Culture Collection (ATCC, Manassas, VA, United States). MCF7 and A549 cells were cultured in RPMI 1640 medium (EuroClone, Italy) supplemented with 10% (v/v) heat-inactivated fetal bovine serum (FBS) (EuroClone, Italy), 1% penicillin-streptomycin (EuroClone, Italy), and 2 mM L-glutamine.
(§2) The cytotoxic activity of the tested compounds were tested using MTT assay. […] Then, the cell viability was recored and IC50 values were calcualted. ([Mosmann, 1983]; [Nafie et al., 2020c]).
A general note: Tetrazolium assays rely on reduction of a dye to a coloured formazan, in cell work by metabolically active cells.

Series [2] has as its system MCF-7 (breast cancer) cells. The series is described as follows: MTT cytotoxicity assay, MCF-7. It is filed as cell-based, human. The note with it: read-out: IC50 ± STDEV, MCF-7. As for the experimental part:
as §1, §2

The subject of series [3] is A549 (non-small cell lung cancer) cells. The series is described as follows: MTT cytotoxicity assay, A549. It is filed as cell-based, human. The note with it: read-out: IC50 ± STDEV, A549. As for the experimental part: as §1, §2
[4] abbreviates: average ±SD of four independent experiments.
[5] abbreviates: Homo sapiens, MCF7, average ±SD of four independent experiments.
[6] abbreviates: Homo sapiens, A549, average ±SD of four independent experiments.

The IC50 is the concentration at which inhibition is half-maximal. In the case of “2-(4,6-Di (piperidin-1-yl)-1,3,5-triazin-2-yl)-3-(1H-indol-3-yl)-2,3-dihydro-1H-pyrazole-4-carbonitrile [Compound 5a]”, the IC50 is more than 500 µM in series [1], 65.2 ± 1.43 µM in series [2] (setting [4]) and 66.1 ± 5.71 µM in series [3] (setting [4]).
A word on the melting point: it is the temperature of the solid-liquid transition. `Nc1cc(-c2c[nH]c3ccccc23)nn1-c1nc(N2CCCCC2)nc(N2CCCCC2)n1` [Compound 3a, 1-(4,6-Di (piperidin-1-yl)-1,3,5-triazin-2-yl)-3-(1H-indol-3-yl)-1H-pyrazol-5-amine] came in with a melting point of 288 to 290 °C. Further, the IC50 in series [1] (Homo sapiens, Fibroblast) was more than 500 µM. In addition, in series [2] (setting [5]), the IC50 was more than 500 µM. The IC50 in series [3] (setting [6]) is more than 500 µM.
In turn, `Nc1cc(-c2c[nH]c3ccccc23)nn1-c1nc(N2CCOCC2)nc(N2CCOCC2)n1` [Compound 3b, 1-(4,6-Dimorpholino-1,3,5-triazin-2-yl)-3-(1H-indol-3-yl)-1H-pyrazol-5-amine] had a melting point of 188 to 189 °C. In addition, in series [1] (Homo sapiens, Fibroblast), the IC50 was 4.47 ± 1.43 µM. For the same compound, the half-inhibitory concentration (IC50) in series [2] (setting [5]) stood at 11.7 ± 1.77 µM. In series [3] (setting [6]), the IC50 came to 3.08 ± 1.27 µM.
For `Nc1cc(-c2c[nH]c3ccccc23)nn1-c1nc(N2CCCCC2)nc(N2CCOCC2)n1` [Compound 3c, 3-(1H-Indol-3-yl)-1-(4-morpholino-6-(piperidin-1-yl)-1,3,5-triazin-2-yl)-1H-pyrazol-5-amine], in that order: 178 to 179 °C, 6.82 ± 1.34 µM, 12.6 ± 1.03 µM and 4.82 ± 0.29 µM.
`Nc1cc(-c2c[nH]c3ccccc23)nn1-c1nc(Nc2ccccc2)nc(N2CCCCC2)n1` [Compound 3d, 4-(5-Amino-3-(1H-indol-3-yl)-1H-pyrazol-1-yl)-N-phenyl-6-(piperidin-1-yl)-1,3,5-triazin-2-amine]: the IC50 worked out at 22.9 ± 5.2 µM in series [1] (Homo sapiens, Fibroblast); 11.7 ± 4.43 µM in series [2] (setting [5]); 10.6 ± 2.88 µM in series [3] (setting [6]).
On to `Nc1cc(-c2c[nH]c3ccccc23)nn1-c1nc(Nc2ccc(Cl)cc2)nc(N2CCCCC2)n1` [Compound 3e, 4-(5-Amino-3-(1H-indol-3-yl)-1H-pyrazol-1-yl)-N-(4-chlorophenyl)-6-(piperidin-1-yl)-1,3,5-triazin-2-amine], for which the melting point was 295 to 296 °C. Besides, in series [1] (Homo sapiens, Fibroblast), the IC50 was found to be 11.2 ± 0.69 µM. In addition, the IC50 in series [2] (setting [5]) was determined as 15.2 ± 0.74 µM. Also, the IC50 in series [3] (setting [6]) amounted to 9.57 ± 1.26 µM.
For `Nc1cc(-c2c[nH]c3ccccc23)nn1-c1nc(Nc2ccc(Br)cc2)nc(N2CCCCC2)n1` [Compound 3f, 4-(5-Amino-3-(1H-indol-3-yl)-1H-pyrazol-1-yl)-N-(4-bromophenyl)-6-(piperidin-1-yl)-1,3,5-triazin-2-amine] the same measures were 271 to 274 °C, 6.8 ± 1.02 µM, 13.2 ± 0.55 µM and 14.8 ± 0.83 µM.
With `COc1ccc(Nc2nc(N3CCCCC3)nc(-n3nc(-c4c[nH]c5ccccc45)cc3N)n2)cc1` [Compound 3g, 4-(5-Amino-3-(1H-indol-3-yl)-1H-pyrazol-1-yl)-N-(4-methoxyphenyl)-6-(piperidin-1-yl)-1,3,5-triazin-2-amine], the IC50 was 4.36 ± 0.83 µM in series [1] (Homo sapiens, Fibroblast); 7.68 ± 0.21 µM in series [2] (setting [5]); 6.23 ± 0.48 µM in series [3] (setting [6]).
For `COc1ccc(Nc2nc(N3CCOCC3)nc(-n3nc(-c4c[nH]c5ccccc45)cc3N)n2)cc1` [Compound 3k, 4-(5-Amino-3-(1H-indol-3-yl)-1H-pyrazol-1-yl)-N-(4-methoxyphenyl)-6-morpholino-1,3,5-triazin-2-amine] the same measures were 8.9 ± 1.07 µM, 4.11 ± 0.5 µM and 3.64 ± 1.26 µM.
For the compound `N#Cc1cnn(-c2nc(N3CCOCC3)nc(N3CCOCC3)n2)c1-c1c[nH]c2ccccc12` [Compound 5b, 1-(4,6-Dimorpholino-1,3,5-triazin-2-yl)-5-(1H-indol-3-yl)-1H-pyrazole-4 carbonitrile], the melting point is 328 to 330 °C. Moreover, the IC50 in series [1] (Homo sapiens, Fibroblast) is more than 500 µM. The IC50 in series [2] (setting [5]) was more than 500 µM. Moreover, the IC50 in series [3] (setting [6]) is more than 500 µM.
Consider `N#Cc1cnn(-c2nc(N3CCCCC3)nc(N3CCOCC3)n2)c1-c1c[nH]c2ccccc12` [Compound 5c, 5-(1H-Indol-3-yl)-1-(4-morpholino-6-(piperidin-1-yl)-1,3,5-triazin-2-yl)-1H-pyrazol4-carbonitrile], for which the IC50 in series [1] (Homo sapiens, Fibroblast) was found to be 537 ± 71.6 µM; in series [2] (setting [5]) it was 152 ± 50.1 µM; in series [3] (setting [6]), 223 ± 88.3 µM.
The compound `N#Cc1cnn(-c2nc(Nc3ccccc3)nc(N3CCCCC3)n2)c1-c1c[nH]c2ccccc12` [Compound 5d, 5-(1H-Indol-3-yl)-1-(4-(phenylamino)-6-(piperidin-1-yl)-1,3,5-triazin-2-yl)-1H-pyrazole-4-carbonitrile] returned a melting point of 298 to 299 °C. The IC50 in series [1] (Homo sapiens, Fibroblast) was 115 ± 14.8 µM. Moreover, the IC50 in series [2] (setting [5]) amounted to 16.8 ± 0.78 µM. The IC50 in series [3] (setting [6]) came to 10.3 ± 2.64 µM.
On to `N#Cc1cnn(-c2nc(Nc3ccc(Cl)cc3)nc(N3CCCCC3)n2)c1-c1c[nH]c2ccccc12` [Compound 5e, 1-(4-((4-Chlorophenyl)amino)-6-(piperidin-1-yl)-1,3,5-triazin-2-yl)-5-(1H-indol-3-yl)-1H-pyrazole-4-carbonitrile], for which the IC50 is more than 500 µM in series [1] (Homo sapiens, Fibroblast); more than 500 µM in series [2] (setting [5]); more than 500 µM in series [3] (setting [6]).
Turning to `N#Cc1cnn(-c2nc(Nc3ccc(Br)cc3)nc(N3CCCCC3)n2)c1-c1c[nH]c2ccccc12` [Compound 5f, 1-(4-((4-Bromophenyl)amino)-6-(piperidin-1-yl)-1,3,5-triazin-2-yl)-5-(1H-indol-3-yl)-1H-pyrazole-4-carbonitrile], the IC50 is more than 500 µM in series [1] (Homo sapiens, Fibroblast); more than 500 µM in series [2] (setting [5]); more than 500 µM in series [3] (setting [6]).
Consider `COc1ccc(Nc2nc(N3CCCCC3)nc(-n3ncc(C#N)c3-c3c[nH]c4ccccc34)n2)cc1` [Compound 5g, 5-(1H-Indol-3-yl)-1-(4-((4-methoxyphenyl)amino)-6-(piperidin-1-yl)-1,3,5-triazin-2-yl)-1H-pyrazole-4-carbonitrile], for which the melting point is 273 to 275 °C. In addition, the IC50 in series [1] (Homo sapiens, Fibroblast) is more than 500 µM. Moreover, the IC50 in series [2] (setting [5]) is more than 500 µM. In series [3] (setting [6]), the IC50 was more than 500 µM.
Take `N#Cc1cnn(-c2nc(Nc3ccccc3)nc(N3CCOCC3)n2)c1-c1c[nH]c2ccccc12` [Compound 5h, 5-(1H-Indol-3-yl)-1-(4-morpholino-6-(phenylamino)-1,3,5-triazin-2-yl)-1H-pyrazole-4-carbonitrile]: the melting point fell in the range of 314 to 316 °C. Further, in series [1] (Homo sapiens, Fibroblast), the IC50 worked out at 23.8 ± 3.37 µM. In series [3] (setting [6]), the IC50 worked out at 7.62 ± 0.85 µM.
Regarding `N#Cc1cnn(-c2nc(Nc3ccc(Cl)cc3)nc(N3CCOCC3)n2)c1-c1c[nH]c2ccccc12` [Compound 5i, 1-(4-((4-Chlorophenyl)amino)-6-morpholino-1,3,5-triazin-2-yl)-5-(1H-indol-3-yl)-1H-pyrazole-4-carbonitrile], the IC50 in series [1] (Homo sapiens, Fibroblast) was more than 500 µM; in series [2] (setting [5]), 59.8 ± 0.81 µM; in series [3] (setting [6]), 44.5 ± 19.2 µM.
For `N#Cc1cnn(-c2nc(Nc3ccc(Br)cc3)nc(N3CCOCC3)n2)c1-c1c[nH]c2ccccc12` [Compound 5j, 1-(4-((4-Bromophenyl)amino)-6-morpholino-1,3,5-triazin-2-yl)-5-(1H-indol-3-yl)-1H-pyrazole-4-carbonitrile], in that order: more than 500 µM, 51.1 ± 10.3 µM and 23.2 ± 2.27 µM.
As to `COc1ccc(Nc2nc(N3CCOCC3)nc(-n3ncc(C#N)c3-c3c[nH]c4ccccc34)n2)cc1` [Compound 5k, 5-(1H-Indol-3-yl)-1-(4-((4-methoxyphenyl)amino)-6-morpholino-1,3,5-triazin-2-yl)-1H-pyrazole-4-carbonitrile], the melting point is 293 to 295 °C. In addition, the IC50 in series [1] (Homo sapiens, Fibroblast) was more than 500 µM. In addition, the IC50 in series [2] (setting [5]) is more than 500 µM. Besides, the IC50 in series [3] (setting [6]) is more than 500 µM.
As for `COc1cccc2c1C(=O)c1c(O)c3c(c(O)c1C2=O)C[C@@](O)(C(=O)CO)C[C@@H]3O[C@H]1C[C@H](N)[C@H](O)[C@H](C)O1` [Doxorubicin, reference compound], the IC50 in series [1] (Homo sapiens, Fibroblast) stood at 0.42 ± 0.27 µM; in series [2] (setting [5]), 0.06 ± 0.02 µM; in series [3] (setting [6]), 0.28 ± 0.11 µM.
